Assay results taken from patent US20250255945A1, “CLICK CHEMISTRY HLA POLYPEPTIDES” (IMMUNEO Therapeutics GmbH, priority 2024, published 2025).

These compounds were tested on peripheral blood mononuclear cells (PBMCs) (assay: IFN-γ ELISPOT assay (ex vivo) with subject PBMCs). Details: Table 1, HTAPPs; response in ELISPOT experiments.
Format: cell-based, human
Experimental: IFNγ ELISpot analysis (for protocol see A. Lalvani, R. Brookes, S. Hambleton, W. J. Britton, A. V. S. Hill, A. J. McMichael, J Exp Med 1997; 186 (6): 859-865) was performed ex vivo (without further in vitro culturing for expansion) using PBMCs depleted of CD4+ and enriched for CD8+ T cells (CD8+ effectors), or depleted of CD8+ and enriched for CD4+ T cells (CD4+ effectors). Tests were performed in duplicate and with a positive and negative control, Multiscreen filter plates (Merck Millipore) pre-coated with IFNγ-specific antibodies (ELISpotPro kit, Mabtech). 267.000 Cells were used per plate. Plates were scanned using an AID Classic Robot ELISPOT Reader and analyzed by AID ELISPOT 7.0 software (AID Autoimmun Diagnostika). Antigen Peptides (except negative and positive control group) were done in duplicates, spot counts were taken as mean values of each duplicate.
The immunogenicity of each of the six peptides was analyzed by IFN-γ secretion by subject peripheral blood mononuclear cells (PBMCs) using ELIspot assay. […]
The immunogenicity of each peptide was assessed in peripheral blood mononuclear cells (PBMCs) from patients and using the IFN-γ-ELISPOT assay. ELISPOT results were considered positive if the number of spots was at least 2-fold higher than the negative control (medium) and at least 50 spots were detected. […] We also tested the effect of delivery aiding peptides (DACP-1) and peptide extension by overlapping tandemization and tandemization on the immunogenicity of the epitopes.

Compound | Elispot [nspots/pM]
5 (IKPRILGFDTPHYWLC) [compound 5] | 267,5 nspots/pM
6 (NVGLSAVCTYNLSTAAAYCIHSINLHNFSNSVL) [compound 6] | 330,5 nspots/pM
2 (LANSPDLSHLAYYVTKVKEEDAF) [compound 2] | 419,5 nspots/pM
10 (LFKDLGLPARTVSTTF) [compound 10] | 143,5 nspots/pM
16 (RERRVASWAMSFERL) [compound 16] | 326,5 nspots/pM
1 (KLVVVGAVGVGKSALTI) [compound 1] | 32,5 nspots/pM

Same assay, conditions: Table 2, HTAPP-DACP; response in ELISPOT experiments

Compound | Elispot [nspots/pM]
30 (KDYSVLYVVPGPVRFQRQIKIWFQNRRMKWKK) [compound 30] | 234,0 nspots/pM
21 (ETNFKSLFHDLFQKVEERQIKIWFQNRRMKWKK) [compound 21] | 334,0 nspots/pM
27 (LFKDLGLPARTVSTTFRQIKIWFQNRRMKWKK) [compound 27] | 196,0 nspots/pM
24 (RERRVASWAMSFERLRQIKIWFQNRRMKWKK) [compound 24] | 436,0 nspots/pM
19 (LANSPDLSHLAYYVTKVKEEDAFRQIKIWFQNRRMKWKK) [compound 19] | 430,5 nspots/pM

Same assay, conditions: Table 4, HTAPP-DACP related to group therapy

Compound | Elispot [nspots/pM]
36 (EYKLVVVGAVGVGKSALTIQRQIKIWFQNRRMKWKK) [compound 36] | 140 nspots/pM
48 (KVKIPVAIKTSPKANKEIRQIKIWFQNRRMKWKK) [compound 48] | 39,2 nspots/pM
37 (GACRHGDRCSRLHNKPTFSRQIKIWFQNRRMKWKK) [compound 37] | 47,5 nspots/pM
32 (AAKALMSAFYTFRYPLSLRQIKIWFQNRRMKWKK) [compound 32] | 75,8 nspots/pM
33 (ATYLWWVNNQSLPVSPRAAYLLLTASLLTFWNPRQIKIWFQNRRMKWKK) [compound 33] | 271,7 nspots/pM

Same assay, conditions: Table 5, HTAPP-DACP related to group therapy

Compound | Elispot [nspots/pM]
60 (PSDQDLLRCHVLTSGIFETRQIKIWFQNRRMKWKK) [compound 60] | 163,3 nspots/pM
55 (MTEYKLVVVGARGVGKSALRQIKIWFQNRRMKWKK) [compound 55] | 44,2 nspots/pM
56 (MTEYKLVVVGASGVGKSALTIQLIQNHRQIKIWFQNRRMKWKK) [compound 56] | 56,7 nspots/pM
65 (TEYKLVVVGAAGVGKSALTIQRQIKIWFQNRRMKWKK) [compound 65] | 22,5 nspots/pM
57 (NSSCMGGMNQRPILTIITLRQIKIWFQNRRMKWKK) [compound 57] | 102,5 nspots/pM
64 (STRDPLSEITKQEKDFLWSHRQIKIWFQNRRMKWKK) [compound 64] | 80,8 nspots/pM
53 (MAQYLSTLLLLLATLAVALRQIKIWFQNRRMKWKK) [compound 53] | 190,8 nspots/pM

Same assay, conditions: Table 6, further HTAPPs, HTAPP-DACPs and reference sequences

Compound | Elispot [nspots/pM]
79 (AIYNEDKLMAKALLLYGADIERQIKIWFQNRRMKWKK) [compound 79] | 242,5 nspots/pM
72 (MLFSNITPK) [compound 72] | 148,0 nspots/pM
77 (KKIRKPRTIYSSLQLQA) [compound 77] | 148,0 nspots/pM

These compounds were tested on prostate cancer with bone metastases (assay: Case study Example 4: immunization of a subject with prostate cancer and bone metastases with PrCa-PC1/PrCa-PC2). Details: after 70 days.
Format: in vivo, human
Experimental: • Subject: A person • Date of Admission: Oct. 4, 2022 • Complaints: Urinary urgency, interrupted urination, nocturia, and erectile dysfunction
• PSA Level: 99.77 ng/mL (See FIG. 9A) • MRI Examination: Moderately enlarged prostate with extensive, organ-crossing, and infiltrating prostate cancer on the left side. • PSMA-PET Examination: Involvement of the middle gland and apex on the left periphery, infiltrating the left seminal vesicles. No PSMA positive lymph node metastases found, but sclerotic bone metastases reported (See FIG. 9B). • First Biopsies: Taken from bone metastases in the area of the lateral mass of the left sacrum. Pathological assessment confirmed malignant prostatic origin.
• Step (a): the pharmaceutical composition comprising the 12 synthetic HLA tumor antigen polypeptides and XS15 as adjuvant were synthesized as chemical peptides, • Step (b): the 12 HLA tumor antigen polypeptides were mixed in 25% DMSO/H2O application solution and divided multiple vial units of […] each, Dose per HLA tumor antigen polypeptide: 300 μg
• Step (a): the pharmaceutical composition comprising the 7 synthetic HLA tumor antigen polypeptides and XS15 as adjuvant were synthesized as chemical peptides, • Step (b): the 7 HLA tumor antigen polypeptides were mixed in 25% DMSO/H2O application solution and divided multiple vial units of 1 ml each, Dose per HLA tumor antigen polypeptide: 300 μg […]

Compound | tolerability (discontinuation)
CC(O)(CS(=O)(=O)c1ccc(F)cc1)C(=O)Nc1ccc(C#N)c(C(F)(F)F)c1 (stereo not drawn) [Bicalutamide] | side effects
